Source: patent US8703961B2, “Thiazole derivatives for the treatment of diseases such as cancer” (Merck Patent GmbH, priority 2009, dated 2014)

Columns and labels:
Assay in all cases: filter binding kinase assay
Format in all cases: biochemical
AURKB = molecular target: T1, AURKB (Homo sapiens, UniProt Q96GD4); conditions: derived from % inhibition at 1 μM
T1 construct: purchased
Procedure: (§1) All kinase assays were carried out using the Multidrop 384 from Thermo-Fisher at room temperature in a total assay volume of 25.5 μl. 15 μl of an enzyme mix comprising enzyme and substrate in buffer are added to the test batch comprising either 0.5 μl of test substance, DMSO control or empty container. Test substances are pre-incubated in the presence of the enzyme and substrate for 5 minutes before the reaction is initiated by addition of 10 μl of ATP (concentration kinase-dependent of […]). The reaction is terminated by addition of 5 μl of orthophosphoric acid (50 mM). The test containers are then transferred onto P81 Unifilter plates by means of a “Packard Harvester” and dried in air. The dry Unifilter plates are sealed after the addition of MicroScint O, and the radioactivity is determined in a Packard Topcount NXT.

BTK = molecular target: T2, BTK (Homo sapiens, UniProt Q06187); conditions: derived from % inhibition at 1 μM
T2 construct: purchased
Procedure: as §1

CAMKK2 = molecular target: T3, CAMKK2 (Homo sapiens, UniProt Q96RR4); conditions: derived from % inhibition at 1 μM
T3 construct: purchased
Procedure: as §1

CDK2 = molecular target: T4, CDK2 (Homo sapiens, UniProt P24941); conditions: for IC50: derived from % inhibition at 1 μM; for remaining activity at 1 µM: read-out: residual kinase activity CDK2
T4 construct: purchased
Procedure: as §1

CHEK1 (CHK1) = molecular target: T5, CHEK1 (CHK1) (Homo sapiens, UniProt O14757); conditions: for IC50: derived from % inhibition at 1 μM
T5 construct: purchased
T5 sequence (O14757 1-476): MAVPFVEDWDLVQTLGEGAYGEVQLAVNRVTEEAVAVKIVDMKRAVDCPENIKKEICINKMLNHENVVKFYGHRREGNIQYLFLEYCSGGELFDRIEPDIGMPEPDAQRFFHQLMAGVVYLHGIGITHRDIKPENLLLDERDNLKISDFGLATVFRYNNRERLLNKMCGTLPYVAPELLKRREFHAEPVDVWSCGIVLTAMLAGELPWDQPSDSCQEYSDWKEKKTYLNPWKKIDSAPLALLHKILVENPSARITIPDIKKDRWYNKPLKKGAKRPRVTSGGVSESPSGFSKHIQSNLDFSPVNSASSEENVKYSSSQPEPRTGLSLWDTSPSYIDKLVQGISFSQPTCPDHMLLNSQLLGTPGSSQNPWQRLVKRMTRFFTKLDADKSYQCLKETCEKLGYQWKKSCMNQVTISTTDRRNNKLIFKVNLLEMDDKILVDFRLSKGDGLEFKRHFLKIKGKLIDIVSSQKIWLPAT
Procedure: as §1

ERBB4 = molecular target: T6, ERBB4 (Homo sapiens, UniProt Q15303); conditions: derived from % inhibition at 1 μM
T6 construct: purchased
Procedure: as §1

INSRR = molecular target: T7, INSRR (Homo sapiens, UniProt P14616); conditions: derived from % inhibition at 1 μM
T7 construct: purchased
Procedure: as §1

MAP3K9 = molecular target: T8, MAP3K9 (Homo sapiens, UniProt P80192); conditions: derived from % inhibition at 1 μM
T8 construct: purchased
Procedure: as §1

MELK = molecular target: T9, MELK (Homo sapiens, UniProt Q14680); conditions: derived from % inhibition at 1 μM
T9 construct: purchased
Procedure: as §1

MYLK = molecular target: T10, MYLK (Homo sapiens, UniProt Q15746); conditions: derived from % inhibition at 1 μM
T10 construct: purchased
Procedure: as §1

NEK6 = molecular target: T11, NEK6 (Homo sapiens, UniProt Q9HC98); conditions: derived from % inhibition at 1 μM
T11 construct: purchased
Procedure: as §1

PAK2 = molecular target: T12, PAK2 (Homo sapiens, UniProt Q13177); conditions: derived from % inhibition at 1 μM
T12 construct: purchased
Procedure: as §1

PIM1 = molecular target: T13, PIM1 (Homo sapiens, UniProt P11309); conditions: derived from % inhibition at 1 μM
T13 construct: purchased
Procedure: as §1

RIPK2 = molecular target: T14, RIPK2 (Homo sapiens, UniProt O43353); conditions: derived from % inhibition at 1 μM
T14 construct: purchased
Procedure: as §1

RPS6KA1 = molecular target: T15, RPS6KA1 (Homo sapiens, UniProt Q15418); conditions: derived from % inhibition at 1 μM
T15 construct: purchased
Procedure: as §1

SGK = molecular target: T16, SGK (Homo sapiens, UniProt O00141); conditions: derived from % inhibition at 1 μM
T16 construct: purchased
T16 sequence (O00141 1-431): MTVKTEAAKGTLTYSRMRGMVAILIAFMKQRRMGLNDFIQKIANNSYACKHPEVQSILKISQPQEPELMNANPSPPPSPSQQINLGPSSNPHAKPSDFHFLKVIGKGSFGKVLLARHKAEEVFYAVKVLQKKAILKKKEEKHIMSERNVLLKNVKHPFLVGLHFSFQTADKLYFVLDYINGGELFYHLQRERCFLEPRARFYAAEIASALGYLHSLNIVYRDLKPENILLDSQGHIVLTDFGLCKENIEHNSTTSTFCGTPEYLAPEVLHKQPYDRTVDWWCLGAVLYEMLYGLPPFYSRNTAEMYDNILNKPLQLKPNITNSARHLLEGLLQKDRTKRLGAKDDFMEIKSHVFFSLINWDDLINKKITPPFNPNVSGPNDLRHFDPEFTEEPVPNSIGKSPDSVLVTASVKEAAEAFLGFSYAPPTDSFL
Procedure: as §1

STK3 = molecular target: T17, STK3 (Homo sapiens, UniProt Q13188); conditions: derived from % inhibition at 1 μM
T17 construct: purchased
T17 sequence (Q13188 1-491): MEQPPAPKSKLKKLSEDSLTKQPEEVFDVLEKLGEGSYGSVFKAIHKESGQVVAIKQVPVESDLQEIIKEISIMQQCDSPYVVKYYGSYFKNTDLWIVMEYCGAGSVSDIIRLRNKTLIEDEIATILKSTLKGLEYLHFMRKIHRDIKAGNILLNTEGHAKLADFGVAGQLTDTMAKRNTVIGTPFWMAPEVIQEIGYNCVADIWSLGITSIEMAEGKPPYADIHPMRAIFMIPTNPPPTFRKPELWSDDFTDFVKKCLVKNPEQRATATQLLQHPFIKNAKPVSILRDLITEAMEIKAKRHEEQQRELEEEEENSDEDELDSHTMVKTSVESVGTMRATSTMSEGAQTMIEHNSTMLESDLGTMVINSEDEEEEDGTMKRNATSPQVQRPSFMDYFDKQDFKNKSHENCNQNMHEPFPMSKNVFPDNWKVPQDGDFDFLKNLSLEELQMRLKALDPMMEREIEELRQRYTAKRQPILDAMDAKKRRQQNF
Procedure: as §1

SYK = molecular target: T18, SYK (Homo sapiens, UniProt P43405); conditions: derived from % inhibition at 1 μM
T18 construct: purchased
Procedure: as §1

T9 sequence (Q14680 whole entry, species assumed): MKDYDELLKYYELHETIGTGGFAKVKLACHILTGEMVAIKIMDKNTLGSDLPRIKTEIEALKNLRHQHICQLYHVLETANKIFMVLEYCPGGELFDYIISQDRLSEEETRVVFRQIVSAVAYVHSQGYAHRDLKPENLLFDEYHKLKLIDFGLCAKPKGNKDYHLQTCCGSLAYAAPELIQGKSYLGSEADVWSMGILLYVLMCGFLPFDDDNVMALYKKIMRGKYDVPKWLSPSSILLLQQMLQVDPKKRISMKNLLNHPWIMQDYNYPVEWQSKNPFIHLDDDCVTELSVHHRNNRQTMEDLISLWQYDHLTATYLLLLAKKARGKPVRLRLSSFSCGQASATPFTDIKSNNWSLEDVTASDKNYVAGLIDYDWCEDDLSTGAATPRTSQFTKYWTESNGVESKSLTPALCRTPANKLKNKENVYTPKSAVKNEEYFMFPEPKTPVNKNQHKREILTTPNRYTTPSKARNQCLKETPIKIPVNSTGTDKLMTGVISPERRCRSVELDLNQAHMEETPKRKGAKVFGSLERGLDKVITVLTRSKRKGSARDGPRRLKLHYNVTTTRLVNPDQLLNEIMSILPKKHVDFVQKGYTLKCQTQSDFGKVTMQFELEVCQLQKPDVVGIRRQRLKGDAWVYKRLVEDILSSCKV
T1 sequence (Q96GD4 whole entry, species assumed): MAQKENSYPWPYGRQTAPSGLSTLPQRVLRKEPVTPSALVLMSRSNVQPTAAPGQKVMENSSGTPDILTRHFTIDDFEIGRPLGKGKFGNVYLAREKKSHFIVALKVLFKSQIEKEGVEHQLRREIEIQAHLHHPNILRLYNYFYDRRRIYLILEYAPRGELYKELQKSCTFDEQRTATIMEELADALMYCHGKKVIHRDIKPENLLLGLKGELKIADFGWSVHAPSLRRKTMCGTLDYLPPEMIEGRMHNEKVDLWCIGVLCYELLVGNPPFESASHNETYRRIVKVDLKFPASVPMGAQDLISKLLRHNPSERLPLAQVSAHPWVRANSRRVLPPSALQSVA
T7 sequence (P14616 27-1297, species assumed): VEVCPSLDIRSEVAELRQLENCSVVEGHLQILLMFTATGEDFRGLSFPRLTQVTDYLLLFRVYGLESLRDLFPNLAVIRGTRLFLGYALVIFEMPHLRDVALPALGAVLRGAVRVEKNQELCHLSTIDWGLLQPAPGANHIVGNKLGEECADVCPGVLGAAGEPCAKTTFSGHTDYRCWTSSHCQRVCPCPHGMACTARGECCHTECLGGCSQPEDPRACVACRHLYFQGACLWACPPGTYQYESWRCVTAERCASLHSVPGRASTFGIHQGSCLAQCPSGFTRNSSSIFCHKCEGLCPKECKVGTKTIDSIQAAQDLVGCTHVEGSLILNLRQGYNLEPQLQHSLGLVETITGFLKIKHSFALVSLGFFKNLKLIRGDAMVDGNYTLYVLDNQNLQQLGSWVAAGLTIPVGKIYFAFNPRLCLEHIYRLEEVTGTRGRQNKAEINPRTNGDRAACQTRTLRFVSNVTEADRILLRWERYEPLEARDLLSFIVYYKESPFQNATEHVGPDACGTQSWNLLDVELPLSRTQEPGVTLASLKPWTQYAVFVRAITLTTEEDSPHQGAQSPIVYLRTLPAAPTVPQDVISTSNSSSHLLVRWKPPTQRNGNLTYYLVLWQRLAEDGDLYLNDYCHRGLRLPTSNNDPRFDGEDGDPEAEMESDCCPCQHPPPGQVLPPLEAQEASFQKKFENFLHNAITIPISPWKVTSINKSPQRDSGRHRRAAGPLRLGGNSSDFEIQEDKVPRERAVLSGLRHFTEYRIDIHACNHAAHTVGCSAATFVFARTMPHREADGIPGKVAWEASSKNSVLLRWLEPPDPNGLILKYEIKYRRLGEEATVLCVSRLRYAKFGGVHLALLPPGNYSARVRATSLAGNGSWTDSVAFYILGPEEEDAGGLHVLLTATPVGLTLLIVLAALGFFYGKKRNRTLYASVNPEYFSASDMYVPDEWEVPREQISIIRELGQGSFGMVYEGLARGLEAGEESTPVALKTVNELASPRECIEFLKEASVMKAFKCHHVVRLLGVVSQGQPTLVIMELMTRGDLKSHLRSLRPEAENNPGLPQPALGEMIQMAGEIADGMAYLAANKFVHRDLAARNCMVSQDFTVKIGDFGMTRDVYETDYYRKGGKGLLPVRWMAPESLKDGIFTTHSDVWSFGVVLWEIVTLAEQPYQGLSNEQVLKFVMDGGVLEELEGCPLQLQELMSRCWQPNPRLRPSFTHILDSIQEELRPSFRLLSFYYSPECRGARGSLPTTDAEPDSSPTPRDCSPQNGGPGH
T15 sequence (Q15418 whole entry, species assumed): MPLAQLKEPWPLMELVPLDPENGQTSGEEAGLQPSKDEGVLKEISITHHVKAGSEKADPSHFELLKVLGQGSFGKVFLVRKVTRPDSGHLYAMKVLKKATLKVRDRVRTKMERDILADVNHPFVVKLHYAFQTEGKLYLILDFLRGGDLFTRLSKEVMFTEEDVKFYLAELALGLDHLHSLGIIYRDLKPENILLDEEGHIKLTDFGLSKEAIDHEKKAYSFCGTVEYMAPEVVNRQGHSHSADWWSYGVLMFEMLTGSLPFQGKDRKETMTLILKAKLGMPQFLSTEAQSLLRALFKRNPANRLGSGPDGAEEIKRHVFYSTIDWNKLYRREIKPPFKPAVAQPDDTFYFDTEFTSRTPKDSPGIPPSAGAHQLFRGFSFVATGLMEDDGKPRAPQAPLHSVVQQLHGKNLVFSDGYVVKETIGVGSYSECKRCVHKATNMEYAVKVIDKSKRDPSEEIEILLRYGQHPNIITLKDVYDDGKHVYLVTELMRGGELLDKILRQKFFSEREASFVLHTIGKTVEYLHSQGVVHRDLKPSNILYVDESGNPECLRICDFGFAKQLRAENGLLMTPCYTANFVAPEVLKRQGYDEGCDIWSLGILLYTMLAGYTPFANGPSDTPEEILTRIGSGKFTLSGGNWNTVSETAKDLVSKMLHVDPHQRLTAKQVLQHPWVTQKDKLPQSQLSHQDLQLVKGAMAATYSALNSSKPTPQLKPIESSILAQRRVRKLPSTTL
T12 sequence (Q13177 whole entry, species assumed): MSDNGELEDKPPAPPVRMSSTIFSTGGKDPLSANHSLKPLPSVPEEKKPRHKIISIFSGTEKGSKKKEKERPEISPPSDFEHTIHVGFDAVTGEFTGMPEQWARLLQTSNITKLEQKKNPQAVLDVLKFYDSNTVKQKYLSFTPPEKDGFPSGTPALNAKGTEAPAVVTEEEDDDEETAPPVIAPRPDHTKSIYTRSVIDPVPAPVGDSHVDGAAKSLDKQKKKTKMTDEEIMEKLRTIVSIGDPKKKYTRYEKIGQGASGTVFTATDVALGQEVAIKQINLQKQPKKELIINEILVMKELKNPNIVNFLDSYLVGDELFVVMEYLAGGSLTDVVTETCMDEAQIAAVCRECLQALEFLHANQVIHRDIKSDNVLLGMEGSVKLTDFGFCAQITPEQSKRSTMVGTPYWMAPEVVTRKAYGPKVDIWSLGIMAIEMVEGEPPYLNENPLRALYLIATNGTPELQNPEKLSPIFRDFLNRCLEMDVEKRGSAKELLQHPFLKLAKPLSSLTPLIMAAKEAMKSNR
T8 sequence (P80192 whole entry, species assumed): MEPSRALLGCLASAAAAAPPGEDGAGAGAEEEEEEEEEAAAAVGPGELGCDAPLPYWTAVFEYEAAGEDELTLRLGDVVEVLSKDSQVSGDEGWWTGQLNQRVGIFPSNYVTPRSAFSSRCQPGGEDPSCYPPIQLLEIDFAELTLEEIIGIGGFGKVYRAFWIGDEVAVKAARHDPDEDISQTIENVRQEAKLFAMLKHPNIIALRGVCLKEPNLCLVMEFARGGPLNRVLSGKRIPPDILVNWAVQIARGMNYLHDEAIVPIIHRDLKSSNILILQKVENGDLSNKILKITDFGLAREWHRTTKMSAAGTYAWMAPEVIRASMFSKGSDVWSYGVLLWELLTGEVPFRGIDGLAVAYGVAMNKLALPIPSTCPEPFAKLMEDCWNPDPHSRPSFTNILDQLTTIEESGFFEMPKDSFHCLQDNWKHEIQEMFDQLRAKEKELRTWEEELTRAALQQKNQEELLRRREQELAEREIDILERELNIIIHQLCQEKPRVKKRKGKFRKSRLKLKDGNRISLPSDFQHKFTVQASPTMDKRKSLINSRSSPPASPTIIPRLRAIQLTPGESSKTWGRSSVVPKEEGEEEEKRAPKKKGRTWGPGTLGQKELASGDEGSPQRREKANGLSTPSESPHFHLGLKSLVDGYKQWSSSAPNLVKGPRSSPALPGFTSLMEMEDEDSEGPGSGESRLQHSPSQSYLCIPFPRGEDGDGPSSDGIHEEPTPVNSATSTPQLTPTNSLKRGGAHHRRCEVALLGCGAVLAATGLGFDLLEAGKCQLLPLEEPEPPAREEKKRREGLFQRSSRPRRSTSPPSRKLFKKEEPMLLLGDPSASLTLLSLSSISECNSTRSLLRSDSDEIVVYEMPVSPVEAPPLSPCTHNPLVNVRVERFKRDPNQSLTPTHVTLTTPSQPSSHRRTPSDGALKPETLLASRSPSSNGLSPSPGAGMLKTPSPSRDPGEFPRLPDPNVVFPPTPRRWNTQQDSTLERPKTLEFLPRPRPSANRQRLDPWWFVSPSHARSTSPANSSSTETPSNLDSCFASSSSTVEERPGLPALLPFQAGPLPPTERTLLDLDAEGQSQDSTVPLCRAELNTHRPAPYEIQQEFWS
T11 sequence (Q9HC98 whole entry, species assumed): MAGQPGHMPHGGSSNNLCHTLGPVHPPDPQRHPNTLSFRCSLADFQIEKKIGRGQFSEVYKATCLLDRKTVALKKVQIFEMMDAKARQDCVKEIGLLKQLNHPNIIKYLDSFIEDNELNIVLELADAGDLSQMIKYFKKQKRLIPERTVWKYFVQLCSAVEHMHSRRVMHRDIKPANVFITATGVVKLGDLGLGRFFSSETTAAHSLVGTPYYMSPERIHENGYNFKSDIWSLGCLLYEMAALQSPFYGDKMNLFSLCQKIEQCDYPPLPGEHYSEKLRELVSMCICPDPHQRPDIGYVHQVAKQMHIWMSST

In the case of `c1ccc(Cc2c[nH]c3ncsc23)cc1` [Compound A7, 6-benzyl-4H-pyrrolo[2,3-d]thiazole], the IC50 (AURKB) is reported as 1 to 10 µM, the IC50 (BTK) is reported as 10 to 100 µM and the IC50 (CAMKK2) is reported as 10 to 100 µM. The IC50 (CDK2) was 0.01 to 1 µM, the remaining activity at 1 µM (CDK2) was 41% and the IC50 (CHEK1 (CHK1)) was greater than 1 µM. The IC50 (ERBB4) was 10 to 100 µM, the IC50 (INSRR) was greater than 1 µM and the IC50 (MAP3K9) was 1 to 10 µM. It also gave an IC50 (MELK) of 1 to 10 µM, an IC50 (MYLK) greater than 1 µM and an IC50 (NEK6) of 10 to 100 µM. The IC50 (PAK2) was 1 to 10 µM, the IC50 (PIM1) was 10 to 100 µM and the IC50 (RIPK2) was 10 to 100 µM. It also gave an IC50 (RPS6KA1) of 10 to 100 µM, an IC50 (SGK) greater than 1 µM and an IC50 (STK3) of 1 to 10 µM. For the same molecule, the IC50 (SYK) was greater than 1 µM.

`Nc1ncsc1C#Cc1cnc2[nH]ccc2c1` [Compound A22, 5-(1H-pyrrolo[2,3-b]pyridin-5-ylethynyl)thiazol-4-ylamine] gave an IC50 (AURKB) of 10 to 100 µM, an IC50 (BTK) of 10 to 100 µM and an IC50 (CAMKK2) greater than 1 µM. For the same molecule, the IC50 (CDK2) was 1 to 10 µM, the remaining activity at 1 µM (CDK2) was 52% and the IC50 (CHEK1 (CHK1)) was 0.01 to 1 µM. It also gave a remaining activity at 1 µM (CHEK1 (CHK1); read-out: residual kinase activity CHK1) of 40%, an IC50 (ERBB4) greater than 1 µM and an IC50 (INSRR) of 1 to 10 µM. It also gave an IC50 (MAP3K9) of 1 to 10 µM, an IC50 (MELK) greater than 1 µM and an IC50 (MYLK) greater than 1 µM. The IC50 (NEK6) was greater than 1 µM, the IC50 (PAK2) was greater than 1 µM and the IC50 (PIM1) was 1 to 10 µM. For the same molecule, the IC50 (RIPK2) was 1 to 10 µM, the IC50 (RPS6KA1) was greater than 1 µM and the IC50 (SGK) was 1 to 10 µM. It also gave an IC50 (STK3) of 10 to 100 µM and an IC50 (SYK) of 10 to 100 µM.

`CC(C)(C)OC(=O)Nc1nc(-c2ccncc2)sc1C#CCN1CCOCC1` [Compound A25, tert-butyl[5-(3-morpholin-4-ylprop-1-ynyl)-2-pyridin-4-ylthiazol-4-yl]-carbamate] showed an IC50 (AURKB) greater than 1 µM, an IC50 (BTK) of 10 to 100 µM and an IC50 (CAMKK2) greater than 1 µM. The IC50 (CDK2) was 10 to 100 µM, the IC50 (CHEK1 (CHK1)) was 10 to 100 µM and the IC50 (ERBB4) was greater than 1 µM. It also gave an IC50 (INSRR) greater than 1 µM, an IC50 (MAP3K9) greater than 1 µM and an IC50 (MELK) greater than 1 µM. For the same molecule, the IC50 (MYLK) was greater than 1 µM, the IC50 (NEK6) was 1 to 10 µM and the IC50 (PAK2) was greater than 1 µM. For the same molecule, the IC50 (PIM1) was greater than 1 µM, the IC50 (RIPK2) was greater than 1 µM and the IC50 (RPS6KA1) was 10 to 100 µM. It also gave an IC50 (SGK) of 10 to 100 µM, an IC50 (STK3) greater than 1 µM and an IC50 (SYK) greater than 1 µM.

With `CC(C)(C)OC(=O)Nc1ncsc1C#CCN1C(=O)c2ccccc2C1=O` [Compound A26, tert-butyl{5-[3-(1,3-dioxo-1,3-dihydroisoindol-2-yl)prop-1-ynyl]-thiazol-4-yl}carbamate] the IC50 (AURKB) was greater than 1 µM, the IC50 (BTK) was greater than 1 µM and the IC50 (CAMKK2) was 10 to 100 µM. It also gave an IC50 (CDK2) of 0.01 to 1 µM, a remaining activity at 1 µM (CDK2) of 28% and an IC50 (CHEK1 (CHK1)) of 10 to 100 µM. For the same molecule, the IC50 (ERBB4) was greater than 1 µM, the IC50 (INSRR) was 1 to 10 µM and the IC50 (MAP3K9) was 1 to 10 µM. For the same molecule, the IC50 (MELK) was greater than 1 µM, the IC50 (MYLK) was greater than 1 µM and the IC50 (NEK6) was 10 to 100 µM. It also gave an IC50 (PAK2) greater than 1 µM, an IC50 (PIM1) of 10 to 100 µM and an IC50 (RIPK2) of 10 to 100 µM. The IC50 (RPS6KA1) was greater than 1 µM, the IC50 (SGK) was 1 to 10 µM and the IC50 (STK3) was greater than 1 µM. For the same molecule, the IC50 (SYK) was greater than 1 µM.

`Nc1ncsc1C#Cc1cccc(O)c1` [Compound A27, 3-(4-aminothiazol-5-ylethynyl)phenol] gave an IC50 (AURKB) of 10 to 100 µM, an IC50 (BTK) of 10 to 100 µM and an IC50 (CAMKK2) of 10 to 100 µM. The IC50 (CDK2) was 10 to 100 µM, the IC50 (CHEK1 (CHK1)) was 10 to 100 µM and the IC50 (ERBB4) was 1 to 10 µM. It also gave an IC50 (INSRR) greater than 1 µM, an IC50 (MAP3K9) of 1 to 10 µM and an IC50 (MELK) of 1 to 10 µM. It also gave an IC50 (MYLK) of 1 to 10 µM, an IC50 (NEK6) of 10 to 100 µM and an IC50 (PAK2) greater than 1 µM. For the same molecule, the IC50 (PIM1) was 1 to 10 µM, the IC50 (RIPK2) was 1 to 10 µM and the IC50 (RPS6KA1) was greater than 1 µM. It also gave an IC50 (SGK) greater than 1 µM, an IC50 (STK3) of 1 to 10 µM and an IC50 (SYK) of 10 to 100 µM.
